Literature values in US11291658B2, “Use of gaboxadol in the treatment of diabetes and related conditions” (Ovid Therapeutics Inc., priority 2017, dated 2022).

Legend:
[1] = patients with a history of drug abuse who received gaboxadol
[2] = system: streptozotocin-induced diabetic rats with moderate to severe hyperglycemia; settings: Gomez et al. 1999
[3] = treatment of insomnia, three-month efficacy study

SMILES: Oc1noc2c1CCNC2 [gaboxadol, 4,5,6,7-tetrahydroisoxazolo [5,4-c]pyridine-3-ol]
- psychiatric adverse events [1]: steep increase in psychiatric adverse events
- hypoglycemic effect [2]: very mild and could only be seen in the moderately hyperglycemic rats
- effects in sleep onset and sleep maintenance [3]: failed to show significant effects
